Molecules are shown by their SMILES. In brackets after ≈: the same amount, converted by molar mass.

Data set [1] has as its system A549, human non-small cell lung cancer cells. The data set can be described thus: cells. In kind it is cell-based.
The test system of another data set is p42. In kind it is binding, Xanthomonas oryzae pv. oryzae.
The nature of a further data set: in vivo. The note with it: Brachydanio rerio (zebrafish).
In the next data set the test system is rice. The conditions noted are these: in vivo.

With `O=c1[nH]cc(F)c(=O)[nH]1` [5-FU, 5-fluorouracil, reference compound], the IC50 (usually the concentration that inhibits the measured activity by half) in data set [1] is 1.42 µM.

Consider `C#CCNc1ncnc2ccccc12` [NP, N-(prop-2-yn-1-yl)quinazolin-4-amine], for which the “proteome labeling in situ or in vitro” value with p42 is on record as “failed to label any proteins”.

In the case of `C=CC(=O)Nc1ncnc2ccc(Br)cc12` [compound 7a, N-(6-bromoquinazolin-4-yl)acrylamide], in “in vivo”, the LC50 – broadly, the concentration that kills 50% of the test population – at 48 h is 0.53 µg/mL (≈ 1.91 µM); the 50% lethal concentration (LC50) at 72 h was 0.48 µg/mL (≈ 1.73 µM); the 50% lethal concentration (LC50) at 96 h was 0.48 µg/mL (≈ 1.73 µM). In data set [1], this compound had an IC50 of 23.1 µM. In addition, the “phytotoxicity on rice leaves” value in the data set on rice is reported as “no signs of damage”. Besides, in the data set on p42, the “competition of probe P1 labeling of p42” value is given as “dose-dependently competed”.

With `C#CCN(C(=O)C=C)c1ncnc2ccc(Br)cc12` [probe P1, N-(6-bromoquinazolin-4-yl)-N-(prop-2-yn-1-yl)acrylamide], in the data set with p42, the “proteome labeling in situ or in vitro” value is reported as “prominent labeling”, the “time after which p42 was visualized” value came to 5 min and the “time to complete labeling of p42” value was 2 h.

The values are drawn from PMC12302339 (Journal of Advanced Research, 2024).
